Reference: ChEMBL document CHEMBL1129812, “Oestrone 3-O-(N-acetyl)sulphamate, a potential molecular probe of the active site of oestrone sulphatase” (Bioorg Med Chem Lett, 1997)
Calls of active or inactive are those of the source. The calls are words filed in the database; no cut-off is given here.

What was measured:
[1] = molecular target: T1, Steryl-sulfatase (Homo sapiens) (UniProt P08842); assay: Compound was tested for percent inhibitory activity against Estrone sulfatase 1 (E1-STS) at 100 uM in placental microsomes; conditions: Placenta
T1 sequence (whole entry): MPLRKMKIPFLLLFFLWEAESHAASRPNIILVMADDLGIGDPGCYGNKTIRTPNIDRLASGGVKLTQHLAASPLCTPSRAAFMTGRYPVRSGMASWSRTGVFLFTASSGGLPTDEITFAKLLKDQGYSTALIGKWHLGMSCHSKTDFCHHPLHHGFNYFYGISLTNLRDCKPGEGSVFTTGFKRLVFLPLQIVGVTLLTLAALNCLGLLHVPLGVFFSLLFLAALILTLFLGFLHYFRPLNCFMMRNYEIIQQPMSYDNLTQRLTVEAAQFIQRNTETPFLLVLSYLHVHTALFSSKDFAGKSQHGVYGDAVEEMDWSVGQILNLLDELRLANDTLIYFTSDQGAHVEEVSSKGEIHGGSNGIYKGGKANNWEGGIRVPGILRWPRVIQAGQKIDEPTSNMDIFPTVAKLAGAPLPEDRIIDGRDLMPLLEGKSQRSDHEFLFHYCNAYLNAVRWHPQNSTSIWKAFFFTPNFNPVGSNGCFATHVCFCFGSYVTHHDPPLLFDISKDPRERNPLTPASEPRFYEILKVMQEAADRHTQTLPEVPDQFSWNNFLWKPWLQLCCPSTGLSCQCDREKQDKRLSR

[2] = molecular target: T1, Steryl-sulfatase (Homo sapiens); assay: Compound was tested for percent inhibitory activity against Estrone sulfatase 1 (E1-STS) at 20 uM in placental microsomes; conditions: Placenta
[3] = molecular target: T1, Steryl-sulfatase (Homo sapiens); assay: Compound was tested for percent inhibitory activity against Estrone sulfatase 1 (E1-STS) at 50 uM in placental microsomes; conditions: Placenta
[4] = molecular target: T1, Steryl-sulfatase (Homo sapiens); assay: In vitro percentage inhibition of Estrone sulfatase 1 (EI-STS) activity at concentration of 0.1 micro M in intact MCF-7 breast cancer cells; type: cell-based; conditions: MCF7
[5] = molecular target: T1, Steryl-sulfatase (Homo sapiens); assay: Compound was tested for percent inhibitory activity against Estrone sulfatase 1 (E1-STS) at 0.10 uM in placental microsomes; conditions: Placenta
[6] = molecular target: T1, Steryl-sulfatase (Homo sapiens); assay: Compound was tested for percent inhibitory activity against Estrone sulfatase 1 (E1-STS) at 0.20 uM in placental microsomes; conditions: Placenta
[7] = molecular target: T1, Steryl-sulfatase (Homo sapiens); assay: Compound was tested for percent inhibitory activity against Estrone sulfatase 1 (E1-STS) at 10 uM in placental microsomes; conditions: Placenta
[8] = molecular target: T1, Steryl-sulfatase (Homo sapiens); assay: Compound was tested for percent inhibitory activity against Estrone sulfatase 1 (E1-STS) at 25 uM in placental microsomes; conditions: Placenta
[9] = molecular target: T2, Steryl-sulfatase (Rattus norvegicus) (UniProt P15589); assay: In vivo inhibition of rat liver Estrone sulfatase 1 (E1-STS) by oral or subcutaneous dose; Almost complete inhibition; type: organism-based
T2 sequence (whole entry): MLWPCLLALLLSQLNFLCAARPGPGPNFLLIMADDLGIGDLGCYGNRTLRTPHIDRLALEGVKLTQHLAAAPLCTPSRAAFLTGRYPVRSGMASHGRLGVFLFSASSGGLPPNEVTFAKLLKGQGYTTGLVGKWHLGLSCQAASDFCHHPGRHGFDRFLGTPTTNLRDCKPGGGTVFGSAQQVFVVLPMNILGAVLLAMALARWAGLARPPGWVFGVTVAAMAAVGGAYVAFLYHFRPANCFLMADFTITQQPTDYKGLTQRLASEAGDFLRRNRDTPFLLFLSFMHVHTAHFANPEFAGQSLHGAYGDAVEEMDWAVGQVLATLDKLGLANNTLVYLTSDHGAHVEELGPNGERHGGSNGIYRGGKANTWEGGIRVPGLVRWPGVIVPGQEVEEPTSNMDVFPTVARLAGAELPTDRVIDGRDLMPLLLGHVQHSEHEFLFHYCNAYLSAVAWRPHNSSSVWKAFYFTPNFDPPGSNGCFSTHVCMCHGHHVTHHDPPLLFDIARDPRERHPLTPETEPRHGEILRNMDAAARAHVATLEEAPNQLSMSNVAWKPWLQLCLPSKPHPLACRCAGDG

[10] = molecular target: T1, Steryl-sulfatase (Homo sapiens); conditions: Placenta; Microsomes; 0.1 uM
Description: Compound was tested for percent inhibitory activity against Estrone sulfatase 1 (E1-STS) at 0.1 uM in placental microsomes

[11] = molecular target: T1, Steryl-sulfatase (Homo sapiens); conditions: Placenta; Microsomes; 0.2 uM
Description: Compound was tested for percent inhibitory activity against Estrone sulfatase 1 (E1-STS) at 0.2 uM in placental microsomes

[12] = molecular target: T1, Steryl-sulfatase (Homo sapiens); conditions: Placenta; Microsomes; 1.0 uM
Description: Compound was tested for percent inhibitory activity against Estrone sulfatase 1 (E1-STS) at 1.0 uM in placental microsomes

| Compound | inhibition [1] [%] | inhibition [2] [%] | inhibition [3] [%] | inhibition [4] [%] | other results |
| --- | --- | --- | --- | --- | --- |
| CN(C)S(=O)(=O)Oc1ccc2c(c1)CCC1[C@@H]2CC[C@]2(C)C(=O)CC[C@@H]12 (single isomer, unassigned) |  |  |  | 50 |  |
| CC(=O)NS(=O)(=O)Oc1ccc2c(c1)CCC1[C@@H]2CC[C@]2(C)C(=O)CC[C@@H]12 (single isomer, unassigned) |  |  |  |  | inhibition [5]: 63%; inhibition [6]: 30%; inhibition [7]: 92%; inhibition [8]: > 99% |
| C[C@]12CC[C@@H]3c4ccc(OS(N)(=O)=O)cc4CCC3[C@@H]1CCC2=O (single isomer, unassigned) |  |  |  |  | inhibition [9]: Active; inhibition [10]: 50%; inhibition [11]: 82%; inhibition [12]: 95% |
| C[C@]12CC[C@@H]3c4ccc(OS(=O)(=O)N(Cc5ccccc5)Cc5ccccc5)cc4CCC3[C@@H]1CCC2=O (single isomer, unassigned) | 75 | 43 | 63 |  |  |

More lines, main results first:

| inhibition [1] [%] | inhibition [2] [%] | inhibition [3] [%] | inhibition [4] [%] | Compound | other results |
| --- | --- | --- | --- | --- | --- |
| 20 | 13 | 17 |  | C[C@]12CC[C@@H]3c4ccc(OS(=O)(=O)N5CCCCC5)cc4CCC3[C@@H]1CCC2=O (single isomer, unassigned) |  |
|  |  |  | 80 | CNS(=O)(=O)Oc1ccc2c(c1)CCC1[C@@H]2CC[C@]2(C)C(=O)CC[C@@H]12 (single isomer, unassigned) |  |
